Measurements reported in ChEMBL document CHEMBL1201862, “PubChem BioAssay data set” (2004).
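Following 48 hours of exposure in 96-well plates, responses at five concentrations were used to interpolate endpoints linearly. Abbreviation: GI50, concentration required for 50% inhibition of growth.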 Activity calls are given as the source filed them. Cut-off read from the data, not from the text of the source: active = GI50 up to about 1.1 µM and inactive = higher.

Tests used:
Experiment in all cases: inhibition of tumour cell growth, NCI panel, 48 h
EKVX = test system: EKVX
A549 = test system: A549
HOP-62 = test system: HOP-62
M14 = test system: M14
NCI/ADR-RES = test system: NCI/ADR-RES
SN12C = test system: SN12C
SR = test system: SR
BT-549 = test system: BT-549
SK-MEL-5 = test system: SK-MEL-5
HOP-92 = test system: HOP-92
DU-145 = test system: DU-145
UO-31 = test system: UO-31
PC-3 = test system: PC-3
IGROV-1 = test system: IGROV-1
Hs-578T = test system: Hs-578T
SF-539 = test system: SF-539
NCI-H460 = test system: NCI-H460
SNB-75 = test system: SNB-75
SNB-19 = test system: SNB-19
SW-620 = test system: SW-620

| SMILES | GI50 (EKVX) | GI50 (A549) | GI50 (HOP-62) | GI50 (M14) | GI50 (NCI/ADR-RES) | GI50 (SN12C) | GI50 (SR) | GI50 (BT-549) | GI50 (SK-MEL-5) | GI50 (HOP-92) | GI50 (DU-145) | GI50 (UO-31) | GI50 (PC-3) | GI50 (IGROV-1) | GI50 (Hs-578T) | GI50 (SF-539) | GI50 (NCI-H460) | GI50 (SNB-75) | GI50 (SNB-19) | GI50 (SW-620) |
| --- | --- | --- | --- | --- | --- | --- | --- | --- | --- | --- | --- | --- | --- | --- | --- | --- | --- | --- | --- | --- |
| COc1cc(/C=C2\CCC(CN(C)C)C2=O)ccc1OC(=O)c1ccccc1 (stereo not given) | 14.2 µM (inactive) | 23.6 µM (inactive) | 16.3 µM (inactive) | 9.51 µM (inactive) | 16.5 µM (inactive) | 10.8 µM (inactive) | 2.56 µM (inactive) | 16.1 µM (inactive) | 15.5 µM (inactive) | 17.4 µM (inactive) | 16.3 µM (inactive) | 16.3 µM (inactive) | 16.4 µM (inactive) | 13.8 µM (inactive) | 8.02 µM (inactive) | 14.1 µM (inactive) | 19.3 µM (inactive) | 16 µM (inactive) | 11.4 µM (inactive) | 5.07 µM (inactive) |
| CC(C)(N)C(=O)N[C@@H]1C(=O)N2[C@@H]1SC(C)(C)[C@@H]2C(=O)O | > 100 µM (inactive) | > 100 µM (inactive) | > 100 µM (inactive) | > 100 µM (inactive) | > 100 µM (inactive) | > 100 µM (inactive) | > 100 µM (inactive) | > 100 µM (inactive) | > 100 µM (inactive) | > 100 µM (inactive) | > 100 µM (inactive) | > 100 µM (inactive) | > 100 µM (inactive) | > 100 µM (inactive) | > 100 µM (inactive) | > 100 µM (inactive) | > 100 µM (inactive) | > 100 µM (inactive) | > 100 µM (inactive) | > 100 µM (inactive) |
| COc1cc2c(c(OC)c1)C(=O)O[C@H](C)CCCC/C=C/C2 | 11.7 µM (inactive) | 30.6 µM (inactive) | 8.15 µM (inactive) | 12.7 µM (inactive) | 29.2 µM (inactive) | 7.14 µM (inactive) | > 53.5 µM (inactive) | 13.4 µM (inactive) | 5.71 µM (inactive) | 9.77 µM (inactive) | 11.7 µM (inactive) | 13.5 µM (inactive) | 7.78 µM (inactive) | 9.06 µM (inactive) | 20.9 µM (inactive) | 10.9 µM (inactive) | 11.1 µM (inactive) | 14.1 µM (inactive) | 16.2 µM (inactive) | 7.94 µM (inactive) |
| NC(=O)C1=CC2C3C=CC2(O)C(=O)OC3O1 (stereo not given) | 3.44 µM (inactive) | 34.7 µM (inactive) | 9.06 µM (inactive) | 2.97 µM (inactive) | 2.46 µM (inactive) | 4.28 µM (inactive) | 1.68 µM (inactive) | 4.06 µM (inactive) | 2.38 µM (inactive) | 2.43 µM (inactive) | 3.89 µM (inactive) | 3.67 µM (inactive) | 3.57 µM (inactive) | 2.92 µM (inactive) | 1.81 µM (inactive) | 3.56 µM (inactive) | 17.9 µM (inactive) | 7.98 µM (inactive) | 13.1 µM (inactive) | 4.02 µM (inactive) |
| C=C(C)C(CC=C(C)C)Cc1c(O)cc(OC)c2c1OC(c1ccc(O)cc1O)C(O)C2=O (stereo not given) | 16.3 µM (inactive) | 19.5 µM (inactive) | 17.3 µM (inactive) | 22 µM (inactive) | 22.9 µM (inactive) | 20.5 µM (inactive) | > 100 µM (inactive) | 14.9 µM (inactive) | 18.5 µM (inactive) | 14.6 µM (inactive) | 18.3 µM (inactive) | 15.9 µM (inactive) | 13.5 µM (inactive) | 14.6 µM (inactive) | 17.2 µM (inactive) | 15.9 µM (inactive) | 15.5 µM (inactive) | 17.2 µM (inactive) | 15.5 µM (inactive) | 16.6 µM (inactive) |
| COC(=O)c1cc2c3c(cc(NCCN)c2[nH]1)N(C(=O)c1cc2cc(OC)c(OC)c(OC)c2[nH]1)CC3CCl (stereo not given) | 0.158 µM (active) | 0.145 µM (active) | 0.17 µM (active) | 0.118 µM (active) | 0.358 µM (active) | 0.0982 µM (active) | 0.0153 µM (active) | 0.229 µM (active) | 0.0313 µM (active) | 0.0703 µM (active) | 0.0221 µM (active) | 0.192 µM (active) | 0.0269 µM (active) | 0.012 µM (active) | 0.049 µM (active) | 0.0392 µM (active) | 0.0502 µM (active) | 0.0382 µM (active) | 0.0183 µM (active) | 0.0369 µM (active) |
| O=C1C(O)=C(CC=C(Cl)Cl)C(=O)c2ccccc21 | 42.3 µM (inactive) | 4.44 µM (inactive) | 12.4 µM (inactive) | 12.6 µM (inactive) | 19.1 µM (inactive) | 12.9 µM (inactive) | 1.08 µM (active) | 18.3 µM (inactive) | 8 µM (inactive) | 43 µM (inactive) | 23.8 µM (inactive) | 20.7 µM (inactive) | 10.9 µM (inactive) | 6.5 µM (inactive) | 42.4 µM (inactive) | 10 µM (inactive) | 1.45 µM (inactive) | 50.6 µM (inactive) | 11 µM (inactive) | 8.93 µM (inactive) |
| COc1cc(CNc2c3ccccc3nc3ccccc23)cc(OC)c1OC | 5.78 µM (inactive) | 3.32 µM (inactive) | 2.93 µM (inactive) | 2.59 µM (inactive) | 4.16 µM (inactive) | 2.88 µM (inactive) | 3.08 µM (inactive) | 3.87 µM (inactive) | 2.72 µM (inactive) | 3.58 µM (inactive) | 4.52 µM (inactive) | 3.05 µM (inactive) | 3.23 µM (inactive) | 3.81 µM (inactive) | 3.64 µM (inactive) | 3.95 µM (inactive) | 2.57 µM (inactive) | 4.02 µM (inactive) | 4.63 µM (inactive) | 1.16 µM (inactive) |
| C(/Cc1ccc2c(c1)OCO2)=N\N=C1NCCCN1 | 48.9 µM (inactive) | 36.7 µM (inactive) | 28.4 µM (inactive) | 32.4 µM (inactive) | 84.1 µM (inactive) | 54.3 µM (inactive) | 22.5 µM (inactive) | 64.7 µM (inactive) | 25 µM (inactive) | 70.1 µM (inactive) | 67.5 µM (inactive) | 38.2 µM (inactive) | 36.3 µM (inactive) | 68.2 µM (inactive) | > 100 µM (inactive) | 50.5 µM (inactive) | 19 µM (inactive) | 15.2 µM (inactive) | > 100 µM (inactive) | > 100 µM (inactive) |
| CCC(CON(C)c1ccccc1)(SC)SC | > 100 µM (inactive) | > 100 µM (inactive) | > 100 µM (inactive) | > 100 µM (inactive) | > 100 µM (inactive) | > 100 µM (inactive) | > 100 µM (inactive) | > 100 µM (inactive) | > 100 µM (inactive) | > 100 µM (inactive) | 82.6 µM (inactive) | 95.1 µM (inactive) | > 100 µM (inactive) | > 100 µM (inactive) | 80.2 µM (inactive) | > 100 µM (inactive) | > 100 µM (inactive) | > 100 µM (inactive) | > 100 µM (inactive) | > 100 µM (inactive) |
| Cc1ccc(S(=O)(=O)N/C(=N\O)Nc2ccc(Cl)c(Cl)c2)cc1 | 5.92 µM (inactive) | 13.3 µM (inactive) | 14.1 µM (inactive) | 5.58 µM (inactive) | 12.8 µM (inactive) | 2.12 µM (inactive) | 5.69 µM (inactive) | 9.64 µM (inactive) | 2.05 µM (inactive) | 3.05 µM (inactive) | 12 µM (inactive) | 5.02 µM (inactive) | 5.48 µM (inactive) | 13.9 µM (inactive) | 3.73 µM (inactive) | 12.1 µM (inactive) | 9.95 µM (inactive) | 5.14 µM (inactive) | 7.4 µM (inactive) | 11.2 µM (inactive) |
| Cc1cc(C)c2c(n1)S(=O)(=O)N(CCCN1CCN(c3cccc(Cl)c3)CC1)C(C(=O)c1ccc(Br)cc1)=C2O | 19.3 µM (inactive) | 22.1 µM (inactive) | 19.9 µM (inactive) | 19.4 µM (inactive) | 18.8 µM (inactive) | 11.1 µM (inactive) | 13.4 µM (inactive) | 42.3 µM (inactive) | 15.4 µM (inactive) | 20.7 µM (inactive) | 26.4 µM (inactive) | 7.1 µM (inactive) | 22 µM (inactive) | 27.2 µM (inactive) | 29.6 µM (inactive) | 20.7 µM (inactive) | 8.91 µM (inactive) | 10.3 µM (inactive) | 20.9 µM (inactive) | 34.1 µM (inactive) |
| O=c1oc2ccc3ccccc3c2cc1-c1nc2ccc([N+](=O)[O-])cc2o1 | 31.3 µM (inactive) | 14.7 µM (inactive) | 10.6 µM (inactive) | 25.5 µM (inactive) | > 80.5 µM (inactive) | 97.5 µM (inactive) | > 71.4 µM (inactive) | > 44.5 µM (inactive) | 10.3 µM (inactive) | 33.6 µM (inactive) | > 58.6 µM (inactive) | > 49.2 µM (inactive) | > 100 µM (inactive) | 28.4 µM (inactive) | 56.6 µM (inactive) | 10.4 µM (inactive) | 36.1 µM (inactive) | 14.8 µM (inactive) | 13.8 µM (inactive) | > 100 µM (inactive) |
| c1ccc(-c2c[nH]c(SC(c3ccccc3)c3ccccc3)n2)cc1 | 13.3 µM (inactive) | 21.9 µM (inactive) | 29 µM (inactive) | 30.8 µM (inactive) | 11.1 µM (inactive) | 17.4 µM (inactive) | 13.3 µM (inactive) | 25.1 µM (inactive) | 12.4 µM (inactive) | 9.51 µM (inactive) | 23.4 µM (inactive) | 29.6 µM (inactive) | 22.1 µM (inactive) | 19.2 µM (inactive) | 33.3 µM (inactive) | 30.4 µM (inactive) | 10.2 µM (inactive) | 32.1 µM (inactive) | 38 µM (inactive) | 27.6 µM (inactive) |
